Entries after “also recorded” stand apart in the source; their conditions may differ. Like-named read-outs stand apart in the source and are kept apart here.
Key:
SARS-CoV-2 MPro = test system: SARS-CoV-2 MPro; parameters: method as in PMID 33655614; details: read-out: IC50 against MPro; cited from earlier work
TbrCatL = target: T1, TbrCatL (Trypanosoma brucei rhodesiense, UniProt Q95PM0); assay: TbrCatL enzymatic inhibition assay (cleavage of fluorogenic substrate Z-FR-AMC); format: biochemical
T1 construct: Conor Caffrey (University of California San Diego)
Outline: (§1)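 Recombinant enzymes assayed by Z-Phe-Arg-AMC cleavage at 25 °C, fluorescence 340/440 nm over 5–7 min, with 10 min or no enzyme–compound preincubation.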

cruzain [1] = target: T2, cruzain (Trypanosoma cruzi, UniProt P25779); assay: biochemical
Outline: as §1

[2] = test system: porphobilinogen deaminase; parameters: method as in earlier work; details: cited from earlier work
cruzain [3] = target: T2, cruzain; assay: Aggregation counter-assays: cruzain inhibition at varying Triton X-100 and after pre-incubation with BSA; format: biochemical; parameters: Cruzain is the truncated, recombinant-expressed cruzipain 1; Brian Shoichet (University of California San Francisco); details: for % Cruzain Inhibition (Mean ± SEM) 0.001% Triton + BSA 1 mg/mL / % Cruzain Inhibition (Mean ± SEM) 0.001% Triton X-100 / % Cruzain Inhibition (Mean ± SEM) 0.01% Triton X-100 / % Cruzain Inhibition (Mean ± SEM) 0.1% Triton X-100: compound µM: MMV687246 12.5, MMV687812 3.125, MMV688179 1.563, MMV688362 3.125, MMV688466 6.25, MMV690028 25
Protocol: To assess the effects of the Triton X-100 concentration on cruzain inhibition, assays were performed using 0.001%, 0.01%, and 0.1% Triton X-100. To evaluate the impact of pre-incubation with bovine serum albumin (BSA), 50 µL of a solution of the compound in the assay buffer containing 0.001% of Triton X-100 was incubated with 4 mg/mL of BSA (Sigma-Aldrich) for 10′ in a 96-well plate. Next, 50 µL of a solution containing circa 2 nM of cruzain in the same buffer was added to each well and incubated for another 10′. Finally, 100 µL of a solution of 5 µM Z-FR-AMC in the same buffer was added to each well and the fluorescence was immediately read. The final compound concentration varies and was selected to be near the compound IC50.
To investigate if inhibition was due to colloidal aggregation, a common cause of unspecific enzyme inhibition in in vitro assays, we employed two well-established experiments: the comparison of percentages of inhibition at varying Triton X-100 concentrations and the effect of compound pre-incubation with BSA on the percentage of inhibition. […] Pre-incubating a compound that aggregates with BSA saturates the protein-binding capacity of the aggregate.

[4] = parameters: method as in earlier work; details: cited from earlier work
DNA minor groove = test system: DNA minor groove; parameters: method as in PMID 18247550, PMID 22497334; details: SPR, ITC, CD, and Tm experiments; cited from earlier work
ferrochelatase = test system: ferrochelatase; parameters: method as in earlier work; details: cited from earlier work
cruzain [5] = target: T2, cruzain; assay: Mechanism of inhibition against cruzain (Michaelis-Menten, Lineweaver-Burk); format: biochemical; parameters: Cruzain is the truncated, recombinant-expressed cruzipain 1; Brian Shoichet (University of California San Francisco)
Protocol: Non-linear regression to Michaelis-Menten models and linear regression for the Lineweaver-Burk plot were performed. Ki was estimated by both methods. The effect of the inhibitor concentration on the Km app was evaluated using the General Linear F-test.

T. cruzi = details: cited from earlier work
[6] = IC50 (µM ± SEM %) TbrCatL 0′, no pre-incubation
[7] = IC50 (µM ± SEM %) TbrCatL 10′ inc, 10′ pre-incubation
[8] = read-out: Inhibition at 5 µM (Mean ± SEM %) TbrCatL 0′
[9] = read-out: Inhibition at 5 µM (Mean ± SEM %) TbrCatL 10′ inc
[10] = read-out: Inhibition at 100 µM (Mean ± SEM %) TbrCatL 0′
[11] = read-out: Inhibition at 100 µM (Mean ± SEM %) TbrCatL 10′ inc
[12] = read-out: TbrCatL 0’ Inhibition
[13] = read-out: TbrCatL 10’ Inhibition
[14] = IC50 (µM ± SEM %) Cruzain 0′, no pre-incubation
[15] = IC50 (µM ± SEM %) Cruzain 10′ inc, 10′ pre-incubation
[16] = read-out: Cruzain 0’ Inhibition, 0’ (pre-incubation time), sheet "Screening results"
[17] = read-out: Cruzain 10’ Inhibition, 10’ (pre-incubation time), sheet "Screening results"
[18] = read-out: Inhibition at 5 µM (Mean ± SEM %) Cruzain 0′, 5 µM, no pre-incubation, initial screening
[19] = read-out: Inhibition at 5 µM (Mean ± SEM %) Cruzain 10′ inc, 5 µM, 10′ pre-incubation, initial screening
[20] = read-out: Inhibition at 100 µM (Mean ± SEM %) Cruzain 0′, 100 µM, no pre-incubation, solid samples
[21] = read-out: Inhibition at 100 µM (Mean ± SEM %) Cruzain 10′ inc, 100 µM, 10′ pre-incubation, solid samples
[22] = read-out: Inhibition of cruzain or TbrCatL (either enzyme) in the initial screening, 5 µM, either cruzain or TbrCatL, with or without pre-incubation

T1 sequence (Q95PM0 entry or part of it): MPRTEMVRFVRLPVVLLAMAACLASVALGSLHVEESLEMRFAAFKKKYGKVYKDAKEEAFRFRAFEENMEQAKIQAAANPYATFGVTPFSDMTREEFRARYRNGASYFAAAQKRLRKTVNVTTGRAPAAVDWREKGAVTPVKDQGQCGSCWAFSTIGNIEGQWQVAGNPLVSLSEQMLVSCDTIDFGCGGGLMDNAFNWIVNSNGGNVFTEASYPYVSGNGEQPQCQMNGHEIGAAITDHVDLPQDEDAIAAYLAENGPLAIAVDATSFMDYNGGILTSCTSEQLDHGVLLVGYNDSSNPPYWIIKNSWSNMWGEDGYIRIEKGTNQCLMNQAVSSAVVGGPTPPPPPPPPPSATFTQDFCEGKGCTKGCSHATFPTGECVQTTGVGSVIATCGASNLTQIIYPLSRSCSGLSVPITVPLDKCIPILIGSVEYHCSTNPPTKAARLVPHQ
T2 sequence (P25779 123-337 limits assumed): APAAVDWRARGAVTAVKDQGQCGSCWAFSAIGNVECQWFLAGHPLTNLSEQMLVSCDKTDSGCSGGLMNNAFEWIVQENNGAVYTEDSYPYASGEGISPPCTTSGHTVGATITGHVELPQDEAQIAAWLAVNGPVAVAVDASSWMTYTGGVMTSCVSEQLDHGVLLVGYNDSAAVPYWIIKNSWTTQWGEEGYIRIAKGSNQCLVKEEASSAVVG

Compound | IC50 (TbrCatL; [6]) [µM] | IC50 (TbrCatL; [7]) [µM] | inhibition at 5 µM (TbrCatL; [8]) [%] | inhibition at 5 µM (TbrCatL; [9]) [%] | inhibition at 100 µM (TbrCatL; [10]) [%] | inhibition at 100 µM (TbrCatL; [11]) [%] | inhibition at 5 µM (TbrCatL; [12]) [%] | inhibition at 5 µM (TbrCatL; [13]) [%] | IC50 (cruzain [1]; [14]) [µM] | IC50 (cruzain [1]; [15]) [µM] | inhibition at 5 µM (cruzain [1]; [16]) [%] | inhibition at 5 µM (cruzain [1]; [17]) [%] | inhibition at 5 µM (cruzain [1]; [18]) [%] | inhibition at 5 µM (cruzain [1]; [19]) [%] | inhibition at 100 µM (cruzain [1]; [20]) [%] | inhibition at 100 µM (cruzain [1]; [21]) [%] | inhibition at 5 µM (cruzain [1]; [22]) [%] | % Cruzain Inhibition (Mean ± SEM) 0.001% Triton + BSA 1 mg/mL (cruzain [3]) [%] | % Cruzain Inhibition (Mean ± SEM) 0.001% Triton X-100 (cruzain [3]) [%] | % Cruzain Inhibition (Mean ± SEM) 0.01% Triton X-100 (cruzain [3]) [%] | other results
N=C(N)Nc1ccc(-c2ccc(-c3ccc(NC(=N)N)cc3Cl)o2)c(Cl)c1 [MMV688179] | 4 ± 1 | 5 ± 2 | 50 ± 3 | 58 ± 25 | 100 | 100 | 50 | 58 | 0.46 ± 0.03 | 0.53 ± 0.03 | 102 | 110 | 98 ± 2 | 100 | 100 | 100 | ≥ 60 | 89 ± 8 | 85 ± 6 | 80 ± 1 | IC50 (SARS-CoV-2 MPro): 1600 nM; IC50 against TbrCatL relative to cruzain (TbrCatL; TbrCatL vs cruzain): 10 fold; Inhibition of porphobilinogen deaminase [2]: lack of MMV688179 inhibition; % Cruzain Inhibition (Mean ± SEM) 0.1% Triton X-100 (cruzain [3]): 82 ± 13%; Colloidal aggregation assessment (cruzain [3]; near the IC50): do not suggest aggregation properties near the IC50; CC50 [4]: 11600 nM; Binding to the DNA minor groove (DNA minor groove): known to bind to the DNA minor groove; Inhibition of ferrochelatase (ferrochelatase): lack of MMV688179 inhibition; Mechanism of inhibition of cruzain (cruzain [5]): competitive inhibitor; also recorded: competition with the substrate; Ki (cruzain [5]; competitive model, read-out: Ki against cruzain from non-linear regression of the Michaelis-Menten competitive model): 165 ± 63 nM; Ki (cruzain [5]; linear regression of Kmapp, read-out: Ki against cruzain from the linear regression of Kmapp): 206 nM; EC50 (T. cruzi; read-out: EC50 against T. cruzi): 27000 nM
COc1cc(C2=NCCN2)cc2cc(-c3ccc(C4=NCCN4)cc3)oc12 [MMV688362] | 2.9 ± 0.8 | 2.3 ± 0.1 | 9 ± 1 | 43 ± 4 | 100 | 100 | 9 | 43 | 4.2 ± 0.6 | 2.35 ± 0.02 | 19 | 27 | 19 ± 1 | 27 ± 3 | 100 | 100 | ≥ 40 | 29 ± 3 | 59 ± 2 | 41 ± 2 | IC50 (cruzain [1]; IC50 against cruzain and TbrCatL (summary), cruzain and TbrCatL, with or without pre-incubation): 2 to 4 µM; % Cruzain Inhibition (Mean ± SEM) 0.1% Triton X-100 (cruzain [3]): 25 ± 2%; Effect of pre-incubation of the compound with BSA on cruzain inhibition (cruzain [3]; near the IC50): some reduction in the inhibition; Binding to the DNA minor groove (DNA minor groove): known to bind to the DNA minor groove; EC50 (T. cruzi; ref Pathogen Box data, read-out: EC50 against T. cruzi reported on PB): 13000 nM
